# Laboratory results from PubChem BioAssay (NCI).
#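 96-well plates; 48 h exposure; 5 concentrations. Endpoints by linear interpolation between flanking doses. Not reached: highest tested concentration assigned. At the TGI there is no net growth.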
# Experiments:
# Assay in all cases: inhibition of tumour cell growth, NCI panel, 48 h
# [1] = system: 786-0 renal
# [2] = system: A549 NSCLC
# [3] = system: ACHN renal
# [4] = system: CCRF-CEM leukemia
# [5] = system: COLO 205 colon
# [6] = system: DLD-1 colon
# [7] = system: DMS 114 small cell lung
# [8] = system: DMS 273 small cell lung
# [9] = system: EKVX NSCLC
# [10] = system: HCC-2998 colon
# [11] = system: HCT-116 colon
# [12] = system: HCT-15 colon
# [13] = system: HL-60(TB) leukemia
# [14] = system: HOP-62 NSCLC
# [15] = system: HT29 colon
# [16] = system: IGROV1 ovarian
# [17] = system: K-562 leukemia
# [18] = system: LOX IMVI melanoma
# [19] = system: LXFL 529 NSCLC
# [20] = system: M14 melanoma
# [21] = system: M19-MEL melanoma
# [22] = system: MOLT-4 leukemia
# [23] = system: NCI-H226 lung
# [24] = system: NCI-H23 lung
# [25] = system: NCI-H460 lung
# [26] = system: OVCAR-4 ovarian
# [27] = system: OVCAR-5 ovarian
# [28] = system: OVCAR-8 ovarian
# [29] = system: RPMI-8226 leukemia
# [30] = system: RXF 393 renal
# [31] = system: SF-268 CNS
# [32] = system: SF-539 CNS
# [33] = system: SK-MEL-28 melanoma
# [34] = system: SK-MEL-5 melanoma
# [35] = system: SK-OV-3 ovarian
# [36] = system: SN12C renal
# [37] = system: SNB-19 CNS
# [38] = system: SNB-75 CNS
# [39] = system: SNB-78 CNS
# [40] = system: SR leukemia
# [41] = system: SW-620 colon
# [42] = system: TK-10 renal
# [43] = system: U251 CNS
# [44] = system: UACC-257 melanoma
# [45] = system: UACC-62 melanoma
# [46] = system: UO-31 renal
# [47] = system: XF 498 CNS
# [48] = system: A498 renal
# [49] = system: CAKI-1 renal
# [50] = system: HOP-92 NSCLC
# [51] = system: KM12 colon
# [52] = system: KM20L2 colon
# [53] = system: MALME-3M melanoma
# [54] = system: NCI-H522 lung
# [55] = system: OVCAR-3 ovarian
# [56] = system: SK-MEL-2 melanoma
# [57] = system: SF-295 CNS
smiles,measurement,setting,value
CCN(CC)CCC(=O)NC1c2ccccc2Oc2c(C)cccc21 (centres undefined),TGI,[1],> 100 µM
same,TGI,[2],> 100 µM
same,TGI,[3],> 100 µM
same,TGI,[4],> 100 µM
same,TGI,[5],> 100 µM
same,TGI,[6],> 100 µM
same,TGI,[7],> 100 µM
same,TGI,[8],> 100 µM
same,TGI,[9],> 100 µM
same,TGI,[10],> 100 µM
same,TGI,[11],> 100 µM
same,TGI,[12],> 100 µM
same,TGI,[13],> 100 µM
same,TGI,[14],> 100 µM
same,TGI,[15],> 100 µM
same,TGI,[16],> 100 µM
same,TGI,[17],> 100 µM
same,TGI,[18],> 100 µM
same,TGI,[19],> 100 µM
same,TGI,[20],> 100 µM
same,TGI,[21],> 100 µM
same,TGI,[22],> 100 µM
same,TGI,[23],> 100 µM
same,TGI,[24],> 100 µM
same,TGI,[25],> 100 µM
same,TGI,[26],> 100 µM
same,TGI,[27],> 100 µM
same,TGI,[28],> 100 µM
same,TGI,[29],> 100 µM
same,TGI,[30],> 100 µM
same,TGI,[31],> 100 µM
same,TGI,[32],> 100 µM
same,TGI,[33],> 100 µM
same,TGI,[34],> 100 µM
same,TGI,[35],> 100 µM
same,TGI,[36],> 100 µM
same,TGI,[37],> 100 µM
same,TGI,[38],> 100 µM
same,TGI,[39],> 100 µM
same,TGI,[40],> 100 µM
same,TGI,[41],> 100 µM
same,TGI,[42],> 100 µM
same,TGI,[43],> 100 µM
same,TGI,[44],> 100 µM
same,TGI,[45],> 100 µM
same,TGI,[46],> 100 µM
same,TGI,[47],> 100 µM
COc1ccc(OC)c(NC(=O)C2=C(C)NC(C)=C(C(=O)Nc3cc(OC)ccc3OC)C2c2ccco2)c1,TGI,[1],> 100 µM
same,TGI,[48],> 100 µM
same,TGI,[2],> 100 µM
same,TGI,[3],> 100 µM
same,TGI,[49],> 100 µM
same,TGI,[4],> 100 µM
same,TGI,[5],> 100 µM
same,TGI,[6],> 100 µM
same,TGI,[7],> 100 µM
same,TGI,[8],> 100 µM
same,TGI,[9],> 100 µM
same,TGI,[11],> 100 µM
same,TGI,[12],> 100 µM
same,TGI,[14],> 100 µM
same,TGI,[50],> 100 µM
same,TGI,[15],> 100 µM
same,TGI,[16],> 100 µM
same,TGI,[17],> 100 µM
same,TGI,[51],> 100 µM
same,TGI,[52],> 100 µM
same,TGI,[19],> 100 µM
same,TGI,[20],> 100 µM
same,TGI,[21],> 100 µM
same,TGI,[53],> 100 µM
same,TGI,[22],> 100 µM
same,TGI,[23],> 100 µM
same,TGI,[24],> 100 µM
same,TGI,[25],> 100 µM
same,TGI,[54],> 100 µM
same,TGI,[55],> 100 µM
same,TGI,[27],> 100 µM
same,TGI,[28],> 100 µM
same,TGI,[29],> 100 µM
same,TGI,[31],> 100 µM
same,TGI,[32],> 100 µM
same,TGI,[56],> 100 µM
same,TGI,[34],> 100 µM
same,TGI,[35],> 100 µM
same,TGI,[36],> 100 µM
same,TGI,[37],> 100 µM
same,TGI,[38],> 100 µM
same,TGI,[39],> 100 µM
same,TGI,[40],> 100 µM
same,TGI,[41],> 100 µM
same,TGI,[42],> 100 µM
same,TGI,[43],> 100 µM
same,TGI,[45],> 100 µM
same,TGI,[46],> 100 µM
same,TGI,[47],> 100 µM
N=c1oc2c(O)c(O)ccc2cc1C(N)=O,TGI,[1],25.3 µM
same,TGI,[48],> 100 µM
same,TGI,[2],> 100 µM
same,TGI,[3],> 100 µM
same,TGI,[49],> 100 µM
same,TGI,[4],47 µM
same,TGI,[5],> 100 µM
same,TGI,[6],> 100 µM
same,TGI,[7],> 100 µM
same,TGI,[8],> 100 µM
same,TGI,[9],> 100 µM
same,TGI,[10],> 100 µM
same,TGI,[11],> 100 µM
same,TGI,[12],> 100 µM
same,TGI,[14],> 100 µM
same,TGI,[50],> 100 µM
same,TGI,[15],> 100 µM
same,TGI,[16],> 100 µM
same,TGI,[17],36.4 µM
same,TGI,[51],> 100 µM
same,TGI,[52],> 100 µM
same,TGI,[19],93.1 µM
same,TGI,[20],> 100 µM
same,TGI,[21],44.8 µM
same,TGI,[53],> 100 µM
same,TGI,[22],75.2 µM
same,TGI,[23],> 100 µM
same,TGI,[24],> 100 µM
same,TGI,[25],> 100 µM
same,TGI,[54],> 100 µM
same,TGI,[55],> 100 µM
same,TGI,[26],31.7 µM
same,TGI,[27],> 100 µM
same,TGI,[28],50.9 µM
same,TGI,[29],> 100 µM
same,TGI,[30],> 100 µM
same,TGI,[31],> 100 µM
same,TGI,[57],94.5 µM
same,TGI,[32],> 100 µM
same,TGI,[56],> 100 µM
same,TGI,[33],> 100 µM
same,TGI,[35],> 100 µM
same,TGI,[36],> 100 µM
same,TGI,[37],> 100 µM
same,TGI,[38],97.6 µM
same,TGI,[39],> 100 µM
same,TGI,[41],83.4 µM
same,TGI,[42],> 100 µM
same,TGI,[43],> 100 µM
same,TGI,[44],> 100 µM
same,TGI,[45],> 100 µM
same,TGI,[46],> 100 µM
same,TGI,[47],53 µM
